Test results as given in patent US12570698B2, “Stabilized peptides for covalent binding to target protein” (Dana-Farber Cancer Institute, Inc., priority 2015, dated 2026).
Bridge positions count the residues as written; N and C are the ends. Square brackets hold non-standard residues; d marks the D form. Ends that are not written are not given here. S5 = C=CCCC[C@](C)(N)C(=O)O

Experiments:
Bfl-1 [1] = biological target: T1, Bfl-1 (Homo sapiens, UniProt Q16548); assay: Bfl-1: Warhead SAHB conjugation assay; format: binding; settings: warhead SAHBs, reducing conditions
T1 sequence (Q16548 1-175): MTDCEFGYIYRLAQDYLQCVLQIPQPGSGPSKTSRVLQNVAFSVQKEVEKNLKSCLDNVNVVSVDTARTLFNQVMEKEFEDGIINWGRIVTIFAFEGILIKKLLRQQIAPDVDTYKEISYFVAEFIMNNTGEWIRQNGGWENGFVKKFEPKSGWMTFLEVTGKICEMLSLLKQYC
Method: Various warhead SAHBs were tested in conjugation assays with Bfl-1. For this series of peptides the warhead at position J was selected from those depicted below.
10 μM Bfl-1 was reduced with DTT, then incubated with 3:1 molar ratio of warhead SAHB. Samples were then combined with loading dye, run on a 12% Bis-Tris SDS-PAGE, and stained with Coomassie. The same setup was used for all antiapoptotic proteins tested.

A375P cells = assay: Cell viability (CellTiter-Glo); format: cell-based, human; settings: 40 μM, over time
Method: We confirmed by LDH release assay that BIM SAHBs had no membranolytic effect on the cells (FIG. 16B). The observed cytotoxicity was instead consistent with mitochondrial apoptosis induction, as reflected by time-responsive caspase 3/7 activation (FIG. 16C) and mitochondrial cytochrome c release (FIG. 16D).
(§1) Cell Viability, LDH Release, and Caspase-3/7 Activation Assays: Cancer cells were cultured using their standard culture media containing 10% FBS and penicillin/streptomycin (A375P: DMEM; SK-MEL-2, SK-MEL-28 and MCF-7: EMEM; A549, H929: RPMI). […] Cell viability and caspase 3/7 activation was measured using CellTiter-Glo and Caspase-Glo 3/7 chemiluminescence reagents (Promega), respectively, and luminescence detected by a microplate reader (Spectramax M5, Molecular Devices). LDH release was quantified after 30 min peptide incubation by plate centrifugation at 1500 rpm for 5 min at 4° C., transfer of 100 μL cell culture media to a clear plate (Corning), incubation with 100 μL LDH reagent (Roche) for 30 min while shaking, and measurement of absorbance at 490 nm on a Spectramax M5 microplate reader.

A549 = assay: Cytotoxicity and caspase 3/7 activation; format: cell-based; settings: non-melanoma line; data not shown
Method: as §1

H929 = assay: Cytotoxicity and caspase 3/7 activation; format: cell-based; settings: non-melanoma line; data not shown
Method: as §1

MCF7 = assay: Cytotoxicity and caspase 3/7 activation; format: cell-based; settings: non-melanoma line; data not shown
Method: as §1

SK-MEL-28 = assay: Cytotoxicity and caspase 3/7 activation; format: cell-based; settings: BFL-1 expressing melanoma line; data not shown
Method: as §1

SK-MEL-2 = assay: Cytotoxicity and caspase 3/7 activation; format: cell-based; settings: BFL-1 expressing melanoma line; data not shown
Method: as §1

Bfl-1 [2] = biological target: T1, Bfl-1; assay: Competitive binding assay after pre-forming the Bfl-1:NOXA disulfide bond; settings: Bfl-1:NOXA disulfide bond pre-formed
Method: The functional impact of the Bfl-1:NOXA disulfide bond formation was evaluated using competitive binding assays and liposomal release assays.

HA-BFL-1ΔC C4S/C19S = biological target: T2, HA-BFL-1ΔC C4S/C19S (Homo sapiens, UniProt Q16548, C19S/C4S); assay: Competition with tBID in 293T lysates (immunoprecipitation); format: binding; settings: 5 μM biotinylated peptide, 0.25 μM tBID, 6 h RT
T2 construct: BFL-1ΔC (aa 1-153); expressed in transfected cells; host or cells: 293T cells, pCMV plasmid, transient
T2 sequence (Q16548 1-153 C4S/C19S): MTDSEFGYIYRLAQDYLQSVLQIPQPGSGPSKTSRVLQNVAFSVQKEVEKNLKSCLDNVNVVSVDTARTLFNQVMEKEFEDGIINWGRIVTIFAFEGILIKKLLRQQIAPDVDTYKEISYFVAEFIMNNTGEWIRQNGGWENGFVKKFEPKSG
Method: Protein concentration of the soluble fraction was measured using a BCA kit according to manufacturer's instructions (Thermo Scientific). […] After 24 h, cells were trypsinized, washed with PBS, lysed in 1% CHAPS buffer, and the supernatant collected for protein concentration determination by BCA kit. […] Cells were harvested and lysed as above, and incubated overnight with anti-HA agarose beads (Pierce). The beads were washed 3 times with lysis buffer, eluted by boiling in LDS buffer, and subjected to western analysis with HA and biotin antibodies. […] Biotin capture was accomplished by incubating the mixture with high-capacity SA agarose (Thermo Scientific) for 2 h at 4° C., followed by centrifugation and washing the pelleted beads with 3×1 mL lysis buffer.

FLAG-MCL-1 = biological target: T3, FLAG-MCL-1 (Homo sapiens, UniProt Q07820); assay: as above; format: binding; settings: 5 μM biotinylated peptide, 0.25 μM tBID, 6 h RT
T3 construct: expressed in transfected cells; host or cells: 293T cells, p3×FLAG-CMV-10 vector, transient
T3 sequence (Q07820 whole entry): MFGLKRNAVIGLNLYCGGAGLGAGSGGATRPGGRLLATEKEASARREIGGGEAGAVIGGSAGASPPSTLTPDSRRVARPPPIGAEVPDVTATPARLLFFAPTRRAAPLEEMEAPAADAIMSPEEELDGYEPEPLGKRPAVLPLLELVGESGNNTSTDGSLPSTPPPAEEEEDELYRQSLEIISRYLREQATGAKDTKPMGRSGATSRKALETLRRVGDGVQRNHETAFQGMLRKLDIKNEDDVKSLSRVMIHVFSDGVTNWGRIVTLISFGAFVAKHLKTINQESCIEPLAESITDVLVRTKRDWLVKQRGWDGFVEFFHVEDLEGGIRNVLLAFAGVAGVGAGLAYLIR
Method: 293T cells were maintained in DMEM containing 10% FBS and penicillin/streptomycin, and transfections performed with 2 μg pCMV plasmid containing HA-BFL-1ΔC C4S/C19S using X-tremeGENE 9 (Roche). For lysate experiments, cells were trypsinized 24 hours post-transfection, washed with PBS, and lysed by incubation with 1% CHAPS lysis buffer (150 mM NaCl, 50 mM Tris pH 7.4, 100 mM DTT). Protein concentration of the soluble fraction was measured using a BCA kit according to manufacturer's instructions (Thermo Scientific). […] Samples were then boiled in LDS buffer and subjected to western analysis using 1:1000 dilutions of HA (Sigma-Aldrich, #12CA5) and biotin (Abcam, #53494) antibodies. To evaluate the capacity of biotinylated SAHBs to compete with tBID for interactions with BFL-1 and MCL-1, 293T cells were transfected with either HA-BFL-1ΔC C4S/C19S or FLAG-MCL-1 in the p3×FLAG-CMV-10 vector (Sigma) as above. After 24 h, cells were trypsinized, washed with PBS, lysed in 1% CHAPS buffer, and the supernatant collected for protein concentration determination by BCA kit. […] The mixtures were then subjected to HA or FLAG (Sigma-Aldrich, F7425) immunoprecipitation, followed by western analysis using 1:1000 dilutions of HA, FLAG, biotin, and BID (Santa Cruz sc-11423) antibodies. […] Cells were harvested and lysed as above, and incubated overnight with anti-HA agarose beads (Pierce). […]

MCL-1 = biological target: T4, MCL-1 (Homo sapiens, UniProt Q07820); assay: SA pull-down from A375P lysates, MCL-1 western; format: binding; settings: biotinylated SAHBs
T4 construct: we incubated A375P lysates with the corresponding biotinylated BIM SAHBs; endogenous in cells; host or cells: A375P melanoma cell lysate

Compound: O=C(O)[C@@H]1CCCCN1 [L-homoproline]
- covalent binding efficiency (Bfl-1 [1]): less efficient

Compound: C=CC(=O)N1CCC[C@@H](C(=O)N[C@H](C(=O)N[C@@H](C)C(=O)N[C@@H](CCC(N)=O)C(=O)N[C@@H](CCC(=O)O)C(=O)N[C@@H](CC(C)C)C(=O)N[C@@H](CCCNC(=N)N)C(=O)N[C@@]2(C)CCCC=CCCC[C@@](C)(C(=O)N[C@@H](Cc3ccccc3)C(=O)N[C@@H](CC(N)=O)C(=O)N[C@@H](C)C(=O)N[C@@H](Cc3ccc(O)cc3)C(=O)N[C@@H](Cc3ccc(O)cc3)C(=O)N[C@@H](C)C(=O)N[C@@H](CCCNC(=N)N)C(=O)N[C@@H](CCCNC(=N)N)C(N)=O)NC(=O)[C@H](CC(=O)O)NC(=O)CNC(=O)[C@H]([C@@H](C)CC)NC2=O)[C@@H](C)CC)C1 [BIM SAHBA-3]
- cytotoxicity compared to BIM SAHBA1 (A375P cells): significant enhancement in cytotoxicity over time
- enhancement in cytotoxicity and caspase 3/7 activation (A549): no evidence of this phenomenon
- enhancement in cytotoxicity and caspase 3/7 activation (H929): no evidence of this phenomenon
- enhancement in cytotoxicity and caspase 3/7 activation (MCF7): no evidence of this phenomenon
- enhancement in cytotoxicity and caspase 3/7 activation (SK-MEL-28): comparative enhancement in cytotoxicity and caspase 3/7 activation
- enhancement in cytotoxicity and caspase 3/7 activation (SK-MEL-2): comparative enhancement in cytotoxicity and caspase 3/7 activation

Compound: O=C(O)[C@H]1CCCCN1 [D-homoproline]
- covalent binding efficiency (Bfl-1 [1]): less efficient

Compound: NOXA SAHBA C25S: NOXA SAHBA with C25S mutation; SEQ ID NO: 128 (AELEVESATQLR[S5]FGD[S5]LNFRQKLL; staple 13-17; not fully specified)
- availability of the Bfl-1 binding pocket to another FITC BH3 domain (Bfl-1 [2]): abrogated these inhibitory effects

Compound: BIM SAHBA: BIM SAHBA (aa 147-166), corresponding construct lacking the acrylamide-based warhead
- competition with tBID for HA-BFL-1 binding (HA-BFL-1ΔC C4S/C19S): incapable of competing with tBID for HA-BFL-1 binding
- competition with tBID for FLAG-MCL-1 (FLAG-MCL-1): equally effective at competing with tBID
- binding to MCL-1 (MCL-1): equivalent binding to anti-apoptotic MCL-1

Compound: CN(C)C/C=C/C(=O)O [trans-4-dimethylaminocrotonic acid]
- covalent binding efficiency (Bfl-1 [1]): less efficient
